Counter-ions that a name gives are not always drawn.
Legend:
isolated rat aorta = test: Calcium inhibitory properties: contractile response to potassium-induced depolarization on isolated rat aorta; set-up: species or system isolated organ, male Wistar rats; settings: for activity at 1 µM: 10^-6 M; for activity at 0.1 µM: 10^-7 M; for activity at 0.01 µM: 10^-8 M; for activity at 0.001 µM: 10^-9 M; for activity at 10 µM: 10^-5 M
Outline: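 Male Wistar rat aorta strips under 2 g tension in modified Krebs-bicarbonate at 37° C, gassed with CO2/O2; contraction induced by 100 mM KCl potassium-Krebs. Compound incubated 60 min before repeat K+ depolarization; response expressed as % of maximum contraction before compound.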

[1] = test system: epinephrine-induced increase in blood-pressure (anti-α effect); test: Antiadrenergic properties: anti-α effect (reduction of epinephrine-induced hypertension); format: in vivo; set-up: key to anti-α effect: +: for a reduction < 50%; ++: for a reduction ≥ 50%; +++: for a reduction sub-total (almost complete reduction); settings: dog
Outline: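 Pentobarbital-anaesthetised, atropinised dogs given an epinephrine dose of 3–10 μg/kg, titrated per animal to raise blood pressure about 133×10^2 Pa. After two reference responses, test compound given intravenously. Result is % reduction of epinephrine-induced hypertension versus reference.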

[2] = test system: isoprenaline-induced acceleration in heart rate (anti-β effect); test: Antiadrenergic properties: anti-β effect (reduction of isoprenaline-induced tachycardia); format: in vivo; set-up: key to anti-β effect: +: for a reduction < 50%; ++: for a reduction ≥ 50%; +++: for a reduction sub-total (almost complete reduction); settings: dog
Outline: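 Pentobarbital-anaesthetized, atropinized dogs given isoprenaline (1–2 μg/kg, dose set per dog for ~70 beats/min rise) alternating with epinephrine every 10 min. After two reference responses, compound given intravenously; % reduction in isoprenaline tachycardia versus reference recorded.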

[3] = Acute toxicity, intravenous, Litchfield and Wilcoxon; settings: mouse, in vivo, mice
Protocol: The acute toxicity of the compounds of the invention was determined intravenously in mice according to the method of Litchfield and Wilcoxon (J. Pharm. Exp. Therap. […], 96, 99).
The following results were obtained, expressed in the form of the LD50, compared with a benzoylindolizine derivative, in this case 2-ethyl-3-{4-[3-(di-n-butylamino)propyloxy]benzoyl}indolizine or butoprozine.

[4] = Rattus norvegicus, 1 h, read-out: % of the maximum contractional effect
[5] = Canis lupus familiaris, iv, 1 mg/kg i.v.
[6] = Canis lupus familiaris, iv, 5 mg/kg i.v.
[7] = Canis lupus familiaris, iv, 0.3 mg/kg i.v.
[8] = Canis lupus familiaris, iv, 5.89 mg/kg i.v.
[9] = Canis lupus familiaris, iv, 10 mg/kg i.v., known compounds

Structure (SMILES) | activity at 1 µM (isolated rat aorta; [4]) [%] | activity at 0.1 µM (isolated rat aorta; [4]) [%] | LD50 [3] [mg/kg] | activity at 0.01 µM (isolated rat aorta; [4]) [%] | further results
CCCCN(CCCC)CCCOc1ccc(S(=O)(=O)c2c(CC)cn3ccccc23)cc1C.Cl [Ex. 9, 2-Ethyl-1-{4-[3-(di-n-butylamino)propyloxy]-3-methylbenzenesulphonyl}indolizine hydrochloride] | 17.4 | 57.2 | 55 | – | inhibition in vivo at 1 mg/kg [1, 5]: ≥ 50%; inhibition in vivo at 1 mg/kg [2, 5]: ≥ 50%
CCCCN(CCCC)CCCOc1ccc(S(=O)(=O)c2c(-c3ccccc3)cn3ccccc23)cc1.Cl [Ex. 18, 2-Phenyl-1-{4-[3-(di-n-butylamino)propyloxy]benzenesulphonyl}indolizine hydrochloride] | 55.6 | – | 35 | – | –
CCCCN(CCCC)CCCOc1ccc(S(=O)(=O)c2c(C)cn3ccccc23)cc1.O=C(O)C(=O)O [Ex. 6, 2-Methyl-1-{4-[3-(di-n-butylamino)propyloxy]benzenesulphonyl}indolizine oxalate] | 13.9 | 69.1 | 31 | – | –
CCCN(CCC)CCCOc1ccc(S(=O)(=O)c2c(CC)cn3ccccc23)cc1.Cl [Ex. 7, 2-Ethyl-1-{4-[3-(di-n-propylamino)propyloxy]benzenesulphonyl}indolizine hydrochloride] | 8.3 | 60 | 26 | – | Activity ratio (isolated rat aorta; compound / Compound E): 6.0; anti-α effect ([1]; 5 mg/kg i.v.): +++; anti-β effect ([2]; 5 mg/kg i.v.): +++
COc1ccc(CCN(C)CCCOc2ccc(S(=O)(=O)c3c(C(C)C)cn4ccccc34)cc2)cc1OC [Ex. 30, 2-Isopropyl-1-[4-{3-[N-methyl-N-(3,4-dimethoxy-β-phenethyl)amino]propyloxy}benzenesulphonyl]indolizine] | – | 9.4 | 140 | 40.1 | activity at 0.001 µM (isolated rat aorta; [4]): 81.7%; anti-α effect ([1]; 0.1 mg/kg i.v.): +++; anti-β effect ([2]; 0.1 mg/kg i.v.): +++
CCc1cn2ccccc2c1S(=O)(=O)c1ccc(OCCCN(C)CCc2ccc(OC)c(OC)c2)cc1 [Ex. 28, 2-Ethyl-1-[4-{3-[N-methyl-N-(3,4-dimethoxy-β-phenethyl)-amino]propyloxy}benzenesulphonyl]indolizine] | – | 14.2 | 32 | 60.2 | activity at 0.001 µM (isolated rat aorta; [4]): 85.4%; anti-α effect ([1]; 0.1 mg/kg i.v.): +++; inhibition in vivo at 0.1 mg/kg ([2]; Canis lupus familiaris, iv, 0.1 mg/kg i.v.): ≥ 50%
CCCCN(CCCC)CCCOc1ccc(C(=O)c2c(CC)cc3ccccn23)cc1 [Butoprozine, 2-ethyl-3-{4-[3-(di-n-butylamino)propyloxy]benzoyl}indolizine, reference compound] | – | – | 23 | – | –
CCCCN(CCCC)CCCOc1ccc(S(=O)(=O)c2c(CCC)cn3ccccc23)cc1.O=C(O)C(=O)O [Ex. 11, 2-n-Propyl-1-{4-[3-(di-n-butylamino)propyloxy]benzenesulphonyl}indolizine oxalate] | 8.8 | 37.7 | 28 | – | inhibition in vivo at 1 mg/kg [1, 5]: ≥ 50%; inhibition in vivo at 1 mg/kg [2, 5]: ≥ 50%
CCCCc1cn2ccccc2c1S(=O)(=O)c1ccc(OCCCN(CCCC)CCCC)cc1.O=C(O)C(=O)O [Ex. 13, 2-n-Butyl-1-{4-[3-(di-n-butylamino)propyloxy]benzenesulphonyl}indolizine oxalate] | 39.8 | – | 31 | – | Activity ratio (isolated rat aorta; compound / Compound C): 2.0; inhibition in vivo at 5 mg/kg [1, 6]: ≥ 50%; inhibition in vivo at 5 mg/kg [2, 6]: ≥ 50%
COc1ccc(CCN(C)CCCOc2ccc(S(=O)(=O)c3c(C(C)C)cn4ccccc34)cc2)cc1 [Ex. 47, 2-Isopropyl-1-[4-{3-[N-methyl-N-(4-methoxy-β-phenethyl)amino]propyloxy}benzenesulphonyl]indolizine acid oxalate] | – | 17.9 | – | 69.6 | activity at 0.001 µM (isolated rat aorta; [4]): 86.5%; inhibition in vivo at 0.3 mg/kg [1, 7]: ≥ 50%; inhibition in vivo at 0.3 mg/kg [2, 7]: < 50%
CCCCN(CCCC)CCCOc1ccc(Sc2c(C(C)C)cn3ccccc23)cc1.O=C(O)C(=O)O [Ex. 52, 1-{4-[3-(di-n-butylamino)propyloxy]phenylthio}-2-isopropylindolizine oxalate] | 81.2 | – | – | – | activity at 10 µM (isolated rat aorta; [4]): 69.2%; anti-α effect ([1]; 5.4 mg/kg i.v.): +++; inhibition in vivo at 5.4 mg/kg ([2]; Canis lupus familiaris, iv, 5.4 mg/kg i.v.): ≥ 50%
COc1cc(CCN(C)CCCOc2ccc(S(=O)(=O)c3c(C(C)C)cn4ccccc34)cc2)cc(OC)c1 [Ex. 145, 2-isopropyl-1[4-{3-[N-methyl-N-(3,5-dimethoxy-β-phenethyl)amino]propyloxy}benzenesulphonyl]indolizine acid oxalate] | – | – | – | 21 | activity at 0.001 µM (isolated rat aorta; [4]): 57.7%; activity at 0.0001 µM (isolated rat aorta; Rattus norvegicus, 1 h, 10^-10 M, read-out: % of the maximum contractional effect): 81%; anti-α effect ([1]; 0.033 mg/kg i.v.): +++; inhibition in vivo at 0.033 mg/kg ([2]; Canis lupus familiaris, iv, 0.033 mg/kg i.v.): ≥ 50%
CCCCN(CCCC)CCCOc1ccc(S(=O)(=O)c2c(C3CCCCC3)cn3ccccc23)cc1 [Ex. 51, 2-Cyclohexyl-1-{4-[3-(di-n-butylamino)propyloxy]-benzenesulphonyl}indolizin] | 58.9 | 80.4 | – | – | anti-α effect ([1]; 5.2 mg/kg i.v.): +++; inhibition in vivo at 5.2 mg/kg ([2]; Canis lupus familiaris, iv, 5.2 mg/kg i.v.): ≥ 50%
CCCCc1nc2ccccc2n1S(=O)(=O)c1ccc(OCCCN(CCCC)CCCC)cc1 [Ex. 65, 2-n-butyl-1-{4-[3-(di-n-butylamino)propyloxy]benzenesulphonyl}benzimidazolacid oxalate] | 47.5 | 64.8 | – | – | inhibition in vivo at 5.89 mg/kg [1, 8]: ≥ 50%; inhibition in vivo at 5.89 mg/kg [2, 8]: ≥ 50%
CCCCN(CCCC)CCCCOc1ccc(S(=O)(=O)c2c(CC)cn3ccccc23)cc1 [Ex. 23, 2-Ethyl-1-{4-[4-(di-n-butylamino)butyloxy]benzenesulphonyl}indolizine hemioxalate] | – | 24.1 | – | 77.8 | anti-α effect ([1]; 1 mg/kg i.v.): +++; anti-β effect ([2]; 1 mg/kg i.v.): +++
CCCCN(CCCC)CCCOc1ccc(S(=O)(=O)c2c(-c3ccccc3)cn3ccccc23)cc1C.Cl [Ex. 19, 2-Phenyl-1-{4-[3-(di-n-butylamino)propyloxy]-3-methylbenzenesulphonyl}indolizine hydrochloride] | 77.2 | – | 60 | – | –
CCCCc1cn2ccccc2c1C(=O)c1ccc(OCCCN(CCCC)CCCC)cc1 [Compound C, reference compound] | 25 | 74.4 | – | – | inhibition in vivo at 10 mg/kg [1, 9]: < 50%; inhibition in vivo at 10 mg/kg [2, 9]: 0%
COc1cccc(CCN(C)CCCOc2ccc(S(=O)(=O)c3c(C(C)C)cn4ccccc34)cc2)c1 [Ex. 46, 2-Isopropyl-1-[4-{3-[N-methyl-N-(3-methoxy-β-phenethyl)amino]propyloxy}benzenesulphonyl]indolizine acid oxalate] | – | 4.3 | – | 49.5 | activity at 0.001 µM (isolated rat aorta; [4]): 78.1%; anti-α effect ([1]; 0.1 mg/kg i.v.): +++; anti-β effect ([2]; 0.1 mg/kg i.v.): +++
COc1ccc(CCN(C)CCCOc2ccc(Sc3c(C(C)C)cn4ccccc34)cc2)cc1OC [Ex. 53, 1-[4-{3-[N-methyl-N-(3,4-dimethoxy-β-phenethyl)amino]propyloxy}phenylthio]-2-isopropylindolizine oxalate] | 75.4 | – | – | – | activity at 10 µM (isolated rat aorta; [4]): 59.8%; anti-α effect ([1]; 6.1 mg/kg i.v.): +++; inhibition in vivo at 6.1 mg/kg ([2]; Canis lupus familiaris, iv, 6.1 mg/kg i.v.): < 50%
